Consider two molecules from PMC12584752, “Covalent fragment screening to inhibit the E3 ligase activity of bacterial NEL enzymes SspH1 and SspH2” (RSC Chemical Biology, 2025).

SMILES strings stand for the structures. Entries after “also recorded” stand apart in the source; their conditions may differ.

One series addresses T1, SspH2 (aa 166–783) (Salmonella typhimurium, UniProt D0ZPH9).
T1 construct: Recombinant SspH1 (aa 161–700) and SspH2 (aa 166–783) were both characterised; His-tag (N, cleaved yes); made in house; host or cells: E. coli BL21
The series is described as follows: Full kinetics characterisation of covalent labelling by intact LC-MS. The series is classed as binding. The following applies: for fold higher kinact/KI with SspH2 than SspH1: SspH2 versus SspH1. Here is the method: (§1) Fig. 3 Validation of HTC hit compounds by intact MS. Labelling heatmaps of dilution series (100–6.25 μM) of compounds 4–10 with (A) WT SspH1 and (B) C492K SspH1. Labelling heatmaps of dilution series of (C) compound 6 and (D) compound 7 with bacterial and human ubiquitin binding proteins. Recombinant proteins were incubated at either 1.0 or 0.5 μM with 50 μM fragments for 24 hours at 4 °C, before fragment labelling was analysed by intact LC-MS. Bacterial proteins are shown in bold and human proteins in italic fonts. (E)–(H) Kinetics analyses: time courses (0–12 hours) of compound labelling (100–1.56 μM) of SspH1 and SspH2 (0.5 μM) for (E) SspH1 and compound 7, and (F) SspH2 and compound 6. Measurements were performed in technical triplicates. Labelling percentages were plotted against time in GraphPad Prism v.10, and curves fitted separately for each replicate using one-phase association, with constraints Y0 = 0 and plateau = highest labelling percentage. Graphs for SspH1 and compound 6, and SspH2 and compound 7 are shown in Fig. S4A and B. Rate constants (kobs, as given by Graphpad Prism calculated K values) were plotted against fragment concentration in triplicate for (G) SspH1 and (H) SspH2. Straight lines were fitted with constraint Yintercept = 0. For SspH2 kinetics, 100 μM kobs was outside the linear range.
(§2) To further understand and compare the labelling of SspH1 and SspH2, we performed a full kinetic analysis of compounds 6 and 7 with both proteins (Fig. 3E–H and Fig. S4A, B). […] Up to a maximum test concentration of 100 μM, the kobsvs. concentration plot was linear for SspH1 so it was not possible to derive individual values of kinact and KI. For SspH2, the relationship was also linear up to 50 μM so it was still only possible to reliably calculate kinact/KI. Nonetheless, we can infer from these plots KI values (SspH1) >100 μM and KI values […] for compounds 6 and 7. From these lower bounds on KI it is clear that the range of ligand efficiencies reflecting the reversible binding interactions with SspH1 and 2 are low (0.19–0.21) and may hint at a challenging binding site for optimising a small molecule inhibitor. Identification of alternative hit series and/or X-ray crystallography would be expected to yield further insight into this putative small molecule binding site. […] At present we don’t understand the molecular basis for the increased reactivity of SspH2 over SspH1, and can only speculate that subtle differences in the active site environment render the catalytic cysteine more reactive.
(§3) Recombinant SspH1 (aa 161–700) and SspH2 (aa 166–783) were both characterised against compounds 6 and 7. A dilution series in DMSO was prepared for the compound, and 1 μL added to three separate wells in a 384 well plate, representing technical triplicates of each condition. 99 μL of 0.5 μM SspH1 or SspH2 in 25 mM HEPES pH 7.5, 50 mM NaCl buffer was added to the wells and mixed thoroughly (final compound concentrations 100, 50, 25, 12.5, 6.25, 3.125, 1.56 μM). This mixture was then dispensed into 8 wells of 10 μL each in a new 384 well plate, one for each time point. The plate was incubated at 4 °C during intact MS. Intact protein LC-MS was performed as previously described,[40] at approximate time points 0, 1, 2, 4, 6, 8 and 12 hours, and deconvoluted as above. The exact times of each measurement were saved with each reading and used for kinetics calculations. Labelling percentages were plotted against time in GraphPad Prism v.10, and curves fitted separately for each replicate using one-phase association, with constraints Y0 = 0 and plateau = highest labelling percentage. Rate constants (kobs, as given by Graphpad Prism calculated K values) were then plotted against concentration in triplicate, and straight lines fitted with constraint Yintercept = 0. Data are presented as mean ± SD, n = 3. Slope values were converted from μM^−1 hour^−1 to M^−1 s^−1 to give kinact/KI values. […]

For a further series, the target named is T2, SspH1 (aa 161–700) (Salmonella typhimurium, UniProt D0ZVG2).
T2 construct: Recombinant IpaH9.8 (21–545) and SspH1 (161–700) were incubated at 0.5 μM; His-tag (N, cleaved yes); made in house; host or cells: E. coli BL21
T2 sequence (D0ZVG2 161-700): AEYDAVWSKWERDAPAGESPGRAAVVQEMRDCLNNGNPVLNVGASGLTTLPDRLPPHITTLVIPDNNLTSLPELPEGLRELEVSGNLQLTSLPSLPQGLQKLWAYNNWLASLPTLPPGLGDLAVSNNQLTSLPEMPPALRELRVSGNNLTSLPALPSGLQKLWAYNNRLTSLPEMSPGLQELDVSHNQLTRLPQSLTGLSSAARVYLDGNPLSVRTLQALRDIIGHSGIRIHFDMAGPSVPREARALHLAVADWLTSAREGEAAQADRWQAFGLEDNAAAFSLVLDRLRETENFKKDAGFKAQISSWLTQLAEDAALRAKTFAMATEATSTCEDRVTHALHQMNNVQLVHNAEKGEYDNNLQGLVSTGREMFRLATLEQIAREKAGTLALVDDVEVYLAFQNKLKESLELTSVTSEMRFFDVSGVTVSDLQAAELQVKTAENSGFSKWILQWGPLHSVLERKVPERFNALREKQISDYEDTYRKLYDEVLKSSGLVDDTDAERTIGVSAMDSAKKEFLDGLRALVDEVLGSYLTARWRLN
Described as above. In kind it is binding. The note with it: for ligand efficiencies reflecting the reversible binding interactions: SspH1 and 2, from lower bounds on KI. Here is the method: as §1, §2, §3

The target of a further series is T3, human E2 UbcH5A (Homo sapiens, UniProt P51668).
T3 construct: UbcH5A aa 1–147; His-tag (N, cleaved yes); made in house; host or cells: E. coli BL21
T3 sequence (P51668 whole entry, the tested form may be a part): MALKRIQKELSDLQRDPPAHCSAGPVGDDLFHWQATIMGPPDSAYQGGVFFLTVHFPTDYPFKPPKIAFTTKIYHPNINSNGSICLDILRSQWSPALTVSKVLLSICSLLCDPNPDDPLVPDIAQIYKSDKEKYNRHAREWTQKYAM
Kind of series: Intact LC-MS labelling selectivity. The following applies: dilution series 100–6.25 μM, 24 hours at 4 °C. The series is classed as binding. Here is the method: as §1
To mitigate the risk of selecting compounds which indiscriminately recognise ubiquitin binding proteins, we next performed preliminary selectivity studies with compounds 6 and 7 against human ubiquitin system proteins. […] In parallel, we tested the compounds against related NEL E3 ligases SspH2 and IpaH9.8. […] Our identification of dual SspH1 and SspH2 ligands is likely due to the high protein sequence similarity of SspH1 and SspH2 (60% for full length; 78% for NEL domains).
Dilution series experiments were performed as for 1st round screening. 1 μM OTUD4, OTUD5 or 0.5 μM HOIL, UbcH5A, SspH2, SspH1 C492K were incubated with 100–6.25 μM compounds for 24 hours at 4 °C, in 25 mM HEPES pH 7.5, 50 mM NaCl buffer. Intact protein LC-MS was performed as previously described.[40] The following deconvolution conditions were used for recombinant proteins studied in this work: […]

The test system of another series is glutathione. The series is described as follows: Glutathione reactivity assay. In kind it is physicochemical. The following applies: 6 mM glutathione in PBS, 40 °C; read-out: GSH t1/2 (converted). As for the experimental part:
10 mM DMSO stocks of compounds 6 and 7 were diluted 20-fold with acetonitrile, and then further 5-fold diluted with 6 mM glutathione in PBS. The reaction was shaken before incubation at 40 °C. The reaction mixture was analysed via UPLC-UV-MS up to eight times across 24 hours, compared to known reference compounds and samples of each compound in distilled water. UPLC conditions: flow rate: 800 μL min^−1; column: acquity UPLC BEH C18 1.7 μm 2.1 × 50 mm; column temperature: 37 °C; mobile phase A: 0.1% formic acid in H2O; mobile phase B: 0.1% formic acid in 100% ACN; run time: 2 minutes; gradient elution: 97% A to 0% A; UV conditions: 210 to 350 nm range; MS conditions: single quad, ESI+, scan range: 50–1000 Da. For each time point, the UV peak area of the parent peak was extracted at a single wavelength (e.g., 254 nm). A pseudo-first-order rate constant (k) for each compound was determined from the slope of a linear regression fit for a plot of the […] peak area of the parent compound versus the time differential for the eight time points; the t1/2 is calculated as follows: t1/2 = 0.693/k.

T1 sequence (D0ZPH9 166-783): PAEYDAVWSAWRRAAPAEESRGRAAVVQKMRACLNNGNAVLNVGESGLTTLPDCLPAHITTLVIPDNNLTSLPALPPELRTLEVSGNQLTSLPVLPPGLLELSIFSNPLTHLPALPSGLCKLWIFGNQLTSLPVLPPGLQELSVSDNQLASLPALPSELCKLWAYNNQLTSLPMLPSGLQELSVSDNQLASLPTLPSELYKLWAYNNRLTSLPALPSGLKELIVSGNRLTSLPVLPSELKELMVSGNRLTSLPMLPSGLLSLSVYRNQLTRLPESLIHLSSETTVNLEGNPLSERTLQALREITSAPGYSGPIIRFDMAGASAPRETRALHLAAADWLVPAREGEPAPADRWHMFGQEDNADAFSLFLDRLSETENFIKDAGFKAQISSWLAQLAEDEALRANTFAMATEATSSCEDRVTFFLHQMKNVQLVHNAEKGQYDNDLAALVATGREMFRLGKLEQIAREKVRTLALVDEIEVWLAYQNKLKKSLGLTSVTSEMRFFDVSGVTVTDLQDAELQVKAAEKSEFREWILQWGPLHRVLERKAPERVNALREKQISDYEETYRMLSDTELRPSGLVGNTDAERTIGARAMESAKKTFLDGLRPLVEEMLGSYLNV

Take `Cc1cc(-c2nc3ccccc3n2C2CCN(C(=O)CCl)CC2)cc(C)c1O.Cl` [compound 6]: at SspH2 (aa 166–783), the Ki was greater than 50 µM, the kinact/KI was determined as 6.9 M⁻¹ s⁻¹ and the “fold higher kinact/KI with SspH2 than SspH1” value is recorded as 4–5 fold. On SspH1 (aa 161–700), the Ki is greater than 100 µM, the kinact/KI turned out to be 1.2 M⁻¹ s⁻¹ and the “ligand efficiencies reflecting the reversible binding interactions” value is listed as 0.19–0.21. Besides, on human E2 UbcH5A, the “labelling of UbcH5A” value is listed as “minimal or no labelling; also recorded: not labelled”. For the same molecule, in the series with glutathione, the half-life at 100 µM was 4.9 h.

Turning to `Cl.O=C(CCl)N1CCC(n2c(-c3ccc(C(F)(F)F)cc3)nc3ccccc32)CC1` [compound 7], at SspH2 (aa 166–783), the Ki was greater than 50 µM, the kinact/KI is 6.2 M⁻¹ s⁻¹ and the “fold higher kinact/KI with SspH2 than SspH1” value was 4–5 fold. In addition, at SspH1 (aa 161–700), the Ki is greater than 100 µM, the inactivation efficiency (kinact/KI) was 1.4 M⁻¹ s⁻¹ and the “ligand efficiencies reflecting the reversible binding interactions” value is listed as 0.19–0.21. In addition, the “labelling of UbcH5A” value on human E2 UbcH5A is on record as “minimal or no labelling; also recorded: not labelled”. Besides, the half-life at 100 µM in the series with glutathione is 4 h.

By kinact/KI is commonly meant the second-order rate constant of inactivation.
